Reference: ChEMBL document CHEMBL1770059, “Identification of chemicals to inhibit the kinase activity of leucine-rich repeat kinase 2 (LRRK2), a Parkinson's disease-associated protein” (Bioorg Med Chem Lett, 2011)
The source made the active and inactive calls. The rule behind the calls is not given here.

Legend:
[1] = system: Leucine-rich repeat serine/threonine-protein kinase 2 (Homo sapiens), Q5S007 [G2019S]; assay: Inhibition of purified N-terminal GST-tagged LRRK2 G2019S mutant autophosphorylation activity using myelin basic protein as substrate at 25 uM
[2] = target: T1, Mitogen-activated protein kinase kinase kinase 5 (Homo sapiens) (UniProt Q99683); assay: Inhibition of ASK1 assessed as residual activity of enzyme at 25 uM
T1 sequence (whole entry): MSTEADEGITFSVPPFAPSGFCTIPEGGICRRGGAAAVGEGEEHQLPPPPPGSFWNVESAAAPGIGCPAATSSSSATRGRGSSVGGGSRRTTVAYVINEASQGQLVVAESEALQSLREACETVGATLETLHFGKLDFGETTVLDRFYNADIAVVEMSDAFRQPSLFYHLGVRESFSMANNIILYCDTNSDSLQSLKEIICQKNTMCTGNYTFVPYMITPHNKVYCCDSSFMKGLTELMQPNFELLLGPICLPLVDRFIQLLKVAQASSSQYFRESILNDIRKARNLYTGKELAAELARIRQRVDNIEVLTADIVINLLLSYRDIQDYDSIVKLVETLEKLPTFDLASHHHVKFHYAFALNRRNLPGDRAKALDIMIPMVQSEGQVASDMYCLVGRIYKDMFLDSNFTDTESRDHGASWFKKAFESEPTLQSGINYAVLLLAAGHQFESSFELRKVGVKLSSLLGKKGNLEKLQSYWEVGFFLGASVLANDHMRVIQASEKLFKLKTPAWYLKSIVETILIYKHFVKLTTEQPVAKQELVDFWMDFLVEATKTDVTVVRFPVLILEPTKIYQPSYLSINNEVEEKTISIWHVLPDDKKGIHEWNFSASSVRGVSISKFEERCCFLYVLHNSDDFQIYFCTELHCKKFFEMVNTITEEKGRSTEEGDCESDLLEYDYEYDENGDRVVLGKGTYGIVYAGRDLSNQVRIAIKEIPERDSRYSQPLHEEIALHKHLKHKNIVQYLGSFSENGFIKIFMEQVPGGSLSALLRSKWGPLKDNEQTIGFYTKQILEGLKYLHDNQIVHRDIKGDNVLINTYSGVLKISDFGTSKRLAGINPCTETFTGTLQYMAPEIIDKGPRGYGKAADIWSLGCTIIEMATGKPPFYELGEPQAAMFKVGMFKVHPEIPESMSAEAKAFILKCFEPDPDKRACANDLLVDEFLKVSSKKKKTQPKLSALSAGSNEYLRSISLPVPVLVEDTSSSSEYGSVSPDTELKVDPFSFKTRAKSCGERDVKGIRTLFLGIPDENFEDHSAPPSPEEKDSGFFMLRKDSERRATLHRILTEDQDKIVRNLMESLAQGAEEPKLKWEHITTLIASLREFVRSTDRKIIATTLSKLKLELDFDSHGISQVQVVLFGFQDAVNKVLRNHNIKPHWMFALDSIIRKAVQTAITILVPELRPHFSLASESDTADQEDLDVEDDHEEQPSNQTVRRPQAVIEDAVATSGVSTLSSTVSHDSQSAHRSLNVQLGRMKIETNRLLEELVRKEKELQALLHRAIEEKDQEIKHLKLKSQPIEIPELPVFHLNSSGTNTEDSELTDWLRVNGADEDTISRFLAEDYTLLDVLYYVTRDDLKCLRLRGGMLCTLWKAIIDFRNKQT

[3] = target: RAF proto-oncogene serine/threonine-protein kinase (Homo sapiens) (UniProt P04049); assay: Inhibition of c-Raf assessed as residual activity of enzyme at 25 uM
[4] = target: Ribosomal protein S6 kinase beta-1 (Homo sapiens) (UniProt P23443); assay: Inhibition of p70S6K assessed as residual activity of enzyme at 25 uM
[5] = target: Ribosomal protein S6 kinase beta-1 (Homo sapiens) (UniProt P23443); assay: Inhibition of p70S6K assessed as residual activity of enzyme at 10 uM
[6] = target: Mitogen-activated protein kinase kinase kinase 9 (Homo sapiens) (UniProt P80192); assay: Inhibition of MLK1 assessed as residual activity of enzyme at 10 uM
[7] = target: Casein kinase I isoform alpha (Homo sapiens) (UniProt P48729); assay: Inhibition of CK1 assessed as residual activity of enzyme at 10 uM
[8] = target: T2, Serine/threonine-protein kinase TAO3 (Homo sapiens) (UniProt Q9H2K8); assay: Inhibition of TAO3 assessed as residual activity of enzyme at 25 uM
T2 sequence (whole entry): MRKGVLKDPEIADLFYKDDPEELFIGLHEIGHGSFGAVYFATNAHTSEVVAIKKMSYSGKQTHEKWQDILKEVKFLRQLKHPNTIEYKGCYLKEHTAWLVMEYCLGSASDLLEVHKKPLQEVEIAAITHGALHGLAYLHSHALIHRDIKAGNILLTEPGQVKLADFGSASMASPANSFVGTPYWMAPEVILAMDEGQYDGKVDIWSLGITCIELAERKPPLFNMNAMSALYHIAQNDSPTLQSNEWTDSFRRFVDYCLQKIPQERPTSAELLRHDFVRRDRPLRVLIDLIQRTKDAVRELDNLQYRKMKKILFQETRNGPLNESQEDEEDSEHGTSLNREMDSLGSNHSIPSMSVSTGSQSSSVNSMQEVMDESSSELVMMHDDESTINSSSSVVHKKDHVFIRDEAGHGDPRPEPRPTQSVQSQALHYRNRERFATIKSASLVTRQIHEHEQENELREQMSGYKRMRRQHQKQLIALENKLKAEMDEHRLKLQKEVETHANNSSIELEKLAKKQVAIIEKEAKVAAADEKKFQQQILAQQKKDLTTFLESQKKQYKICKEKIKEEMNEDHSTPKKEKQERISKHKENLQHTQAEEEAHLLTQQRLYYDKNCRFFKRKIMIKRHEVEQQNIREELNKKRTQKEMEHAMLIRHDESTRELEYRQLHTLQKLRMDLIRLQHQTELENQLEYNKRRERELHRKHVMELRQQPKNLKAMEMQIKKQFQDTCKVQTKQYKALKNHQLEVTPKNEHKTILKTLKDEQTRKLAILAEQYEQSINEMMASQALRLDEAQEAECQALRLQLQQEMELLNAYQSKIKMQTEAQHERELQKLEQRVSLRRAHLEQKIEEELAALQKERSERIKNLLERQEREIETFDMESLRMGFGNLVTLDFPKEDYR

[9] = system: Leucine-rich repeat serine/threonine-protein kinase 2 (Homo sapiens), Q5S007 [G2019S]; assay: Inhibition of purified N-terminal GST-tagged LRRK2 G2019S mutant assessed as residual activity of enzyme at 25 uM
[10] = system: Leucine-rich repeat serine/threonine-protein kinase 2 (Homo sapiens), Q5S007 [G2019S]; assay: Inhibition of LRRK2 G2019S mutant expressed in mouse SN4741 cells assessed as reduction in hydrogen peroxide-induced neurotoxicity at 10 uM by measuring cell survival after 48 hrs by crystal violet assay relative to control; type: cell-based
[11] = target: Serine/threonine-protein kinase mTOR (Homo sapiens) (UniProt P42345); assay: Inhibition of mTOR assessed as residual activity of enzyme at 10 uM
[12] = system: Leucine-rich repeat serine/threonine-protein kinase 2 (Homo sapiens), Q5S007 [G2019S]; assay: Inhibition of purified N-terminal GST-tagged LRRK2 G2019S mutant assessed as residual activity of enzyme at 10 uM

Chain of Leucine-rich repeat serine/threonine-protein kinase 2 (Homo sapiens), Q5S007 [G2019S] (Q5S007 whole entry G2019S): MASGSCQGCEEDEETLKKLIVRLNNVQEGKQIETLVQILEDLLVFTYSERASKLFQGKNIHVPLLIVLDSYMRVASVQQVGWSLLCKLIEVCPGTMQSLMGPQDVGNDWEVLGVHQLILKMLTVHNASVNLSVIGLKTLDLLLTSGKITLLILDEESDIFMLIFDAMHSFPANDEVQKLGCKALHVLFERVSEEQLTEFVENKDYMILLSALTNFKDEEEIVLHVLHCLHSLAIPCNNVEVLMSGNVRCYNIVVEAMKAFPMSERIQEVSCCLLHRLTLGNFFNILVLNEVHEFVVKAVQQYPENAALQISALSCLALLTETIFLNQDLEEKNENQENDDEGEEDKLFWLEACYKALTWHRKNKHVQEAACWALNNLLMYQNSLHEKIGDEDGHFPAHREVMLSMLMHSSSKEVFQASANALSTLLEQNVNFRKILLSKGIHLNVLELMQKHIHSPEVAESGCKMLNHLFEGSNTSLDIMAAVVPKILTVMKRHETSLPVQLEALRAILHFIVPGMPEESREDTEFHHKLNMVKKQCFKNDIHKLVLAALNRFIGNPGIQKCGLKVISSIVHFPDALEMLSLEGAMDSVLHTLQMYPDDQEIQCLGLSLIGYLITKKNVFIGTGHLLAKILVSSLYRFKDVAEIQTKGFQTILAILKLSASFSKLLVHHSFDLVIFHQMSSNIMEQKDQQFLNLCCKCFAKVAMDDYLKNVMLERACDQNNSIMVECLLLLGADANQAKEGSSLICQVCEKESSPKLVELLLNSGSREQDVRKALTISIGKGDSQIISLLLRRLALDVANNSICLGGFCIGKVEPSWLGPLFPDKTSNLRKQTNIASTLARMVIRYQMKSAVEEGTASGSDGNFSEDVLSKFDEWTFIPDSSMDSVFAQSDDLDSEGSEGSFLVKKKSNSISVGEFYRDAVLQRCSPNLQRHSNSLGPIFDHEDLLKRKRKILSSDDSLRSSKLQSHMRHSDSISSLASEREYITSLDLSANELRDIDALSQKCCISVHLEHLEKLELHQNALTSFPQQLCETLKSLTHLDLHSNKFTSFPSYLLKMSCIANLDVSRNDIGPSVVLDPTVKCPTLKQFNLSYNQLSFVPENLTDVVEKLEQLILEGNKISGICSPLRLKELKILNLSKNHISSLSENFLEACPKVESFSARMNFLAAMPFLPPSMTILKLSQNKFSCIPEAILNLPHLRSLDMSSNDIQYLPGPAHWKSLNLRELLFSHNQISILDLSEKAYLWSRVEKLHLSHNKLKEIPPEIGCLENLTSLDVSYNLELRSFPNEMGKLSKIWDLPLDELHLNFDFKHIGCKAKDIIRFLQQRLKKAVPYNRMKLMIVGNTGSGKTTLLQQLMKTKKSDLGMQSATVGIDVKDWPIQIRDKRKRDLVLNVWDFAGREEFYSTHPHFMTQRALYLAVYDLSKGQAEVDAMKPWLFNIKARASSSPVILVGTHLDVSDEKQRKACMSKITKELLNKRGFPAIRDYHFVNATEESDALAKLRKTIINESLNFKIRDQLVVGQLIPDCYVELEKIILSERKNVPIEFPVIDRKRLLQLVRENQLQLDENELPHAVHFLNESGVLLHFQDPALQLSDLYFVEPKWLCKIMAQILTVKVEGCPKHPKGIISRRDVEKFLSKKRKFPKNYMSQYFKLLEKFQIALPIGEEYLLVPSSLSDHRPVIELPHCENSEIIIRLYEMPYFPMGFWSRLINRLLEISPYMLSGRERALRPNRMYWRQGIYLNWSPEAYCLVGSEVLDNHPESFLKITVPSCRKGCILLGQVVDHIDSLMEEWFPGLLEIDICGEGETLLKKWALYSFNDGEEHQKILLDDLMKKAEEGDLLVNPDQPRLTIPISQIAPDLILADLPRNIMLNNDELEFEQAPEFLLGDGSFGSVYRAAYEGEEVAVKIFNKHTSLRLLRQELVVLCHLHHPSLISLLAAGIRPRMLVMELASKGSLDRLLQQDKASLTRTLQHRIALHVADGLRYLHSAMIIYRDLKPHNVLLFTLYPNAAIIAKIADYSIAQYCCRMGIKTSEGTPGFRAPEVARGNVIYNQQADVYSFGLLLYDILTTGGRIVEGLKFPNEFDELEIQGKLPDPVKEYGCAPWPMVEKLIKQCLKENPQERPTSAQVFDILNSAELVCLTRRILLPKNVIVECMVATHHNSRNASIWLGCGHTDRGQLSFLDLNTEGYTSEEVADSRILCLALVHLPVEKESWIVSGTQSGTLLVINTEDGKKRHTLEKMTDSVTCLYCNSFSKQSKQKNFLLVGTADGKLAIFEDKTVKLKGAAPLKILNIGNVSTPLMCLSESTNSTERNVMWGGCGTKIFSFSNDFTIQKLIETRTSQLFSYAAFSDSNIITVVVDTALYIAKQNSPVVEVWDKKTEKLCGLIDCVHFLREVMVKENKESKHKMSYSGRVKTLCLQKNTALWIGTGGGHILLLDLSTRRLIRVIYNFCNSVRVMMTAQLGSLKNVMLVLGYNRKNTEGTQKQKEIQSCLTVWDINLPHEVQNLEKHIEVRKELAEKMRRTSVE
Chain of Ribosomal protein S6 kinase beta-1 (Homo sapiens) (P23443 whole entry, looked up): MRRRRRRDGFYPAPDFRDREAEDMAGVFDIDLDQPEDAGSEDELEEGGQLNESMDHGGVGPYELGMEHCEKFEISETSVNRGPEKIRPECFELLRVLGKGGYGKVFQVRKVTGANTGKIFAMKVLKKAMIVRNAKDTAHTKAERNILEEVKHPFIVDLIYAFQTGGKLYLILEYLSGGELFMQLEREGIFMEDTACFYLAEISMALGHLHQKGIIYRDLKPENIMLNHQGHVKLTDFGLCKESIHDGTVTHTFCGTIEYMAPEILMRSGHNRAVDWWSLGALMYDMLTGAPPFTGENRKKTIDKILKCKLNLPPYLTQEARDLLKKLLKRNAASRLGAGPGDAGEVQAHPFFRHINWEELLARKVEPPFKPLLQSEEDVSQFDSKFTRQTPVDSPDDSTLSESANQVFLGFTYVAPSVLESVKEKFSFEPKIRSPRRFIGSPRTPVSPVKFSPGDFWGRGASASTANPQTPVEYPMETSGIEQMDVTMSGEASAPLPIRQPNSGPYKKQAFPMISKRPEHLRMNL
Chain of RAF proto-oncogene serine/threonine-protein kinase (Homo sapiens) (P04049 whole entry): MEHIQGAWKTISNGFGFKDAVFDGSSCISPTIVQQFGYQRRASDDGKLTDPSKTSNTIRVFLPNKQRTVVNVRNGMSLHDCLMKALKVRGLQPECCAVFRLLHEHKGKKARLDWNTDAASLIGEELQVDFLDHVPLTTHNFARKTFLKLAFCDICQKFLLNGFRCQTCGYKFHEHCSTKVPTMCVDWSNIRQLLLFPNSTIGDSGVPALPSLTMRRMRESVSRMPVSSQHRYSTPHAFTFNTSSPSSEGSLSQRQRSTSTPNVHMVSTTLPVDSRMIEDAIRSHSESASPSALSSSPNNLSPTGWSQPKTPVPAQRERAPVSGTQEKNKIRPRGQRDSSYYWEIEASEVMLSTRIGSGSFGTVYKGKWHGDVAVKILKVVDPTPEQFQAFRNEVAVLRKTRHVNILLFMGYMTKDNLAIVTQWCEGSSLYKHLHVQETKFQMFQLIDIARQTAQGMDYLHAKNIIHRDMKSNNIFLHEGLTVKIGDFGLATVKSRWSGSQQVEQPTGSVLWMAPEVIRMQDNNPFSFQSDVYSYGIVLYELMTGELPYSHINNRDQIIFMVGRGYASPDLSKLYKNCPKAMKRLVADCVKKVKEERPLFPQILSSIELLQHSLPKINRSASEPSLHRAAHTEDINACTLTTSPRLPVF
Chain of Casein kinase I isoform alpha (Homo sapiens) (P48729 2-337 limits assumed): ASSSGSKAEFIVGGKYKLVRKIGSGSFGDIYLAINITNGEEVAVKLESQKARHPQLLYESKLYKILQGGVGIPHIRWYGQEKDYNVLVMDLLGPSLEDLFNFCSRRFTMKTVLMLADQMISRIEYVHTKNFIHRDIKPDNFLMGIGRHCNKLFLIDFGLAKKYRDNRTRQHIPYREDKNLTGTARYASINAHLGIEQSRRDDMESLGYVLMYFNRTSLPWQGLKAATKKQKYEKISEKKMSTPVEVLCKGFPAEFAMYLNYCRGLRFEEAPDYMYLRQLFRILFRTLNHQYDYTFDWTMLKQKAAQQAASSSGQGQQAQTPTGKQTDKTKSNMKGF

In the case of Cc1cc(N/N=C/c2ccncc2)nc2ccccc12, the inhibition [1] is reported as “Active”, the Activity [2] is reported as 68% and the Activity [3] is reported as 86%. It also gave an Activity [4] of 50%, an Activity [5] of 67% and an Activity [6] of 20%. The Activity [7] was 77%, the Activity [8] was 81% and the Activity [9] was 11%. For the same molecule, the Activity [10] was 50%, the Activity [11] was 103% and the Activity [12] was 28%.
